From patent US8846935B2, “Indazoles” (GlaxoSmithKline LLC, priority 2010, dated 2014)

Target: T1, EZH2 within the PRC2 complex (Homo sapiens, UniProt Q15910)
T1 construct: FLAG; made in house; host or cells: Sf9 cells
Test: EZH2 methyltransferase scintillation proximity assay (SPA)
Type: biochemical
Conditions: methyltransferase activity of EZH2 in human PRC2 complex, 3H-SAM, HeLa mononucleosomes
Experimental: Compounds contained herein were evaluated for their ability to inhibit the methyltransferase activity of EZH2 within the PRC2 complex. Human PRC2 complex was prepared by co-expressing each of the 5 member proteins (FLAG-EZH2, EED, SUZ12, RbAp48, AEBP2) in Sf9 cells followed by co-purification. Enzyme activity was measured in a scintillation proximity assay (SPA) where a tritiated methyl group is transferred from 3H-SAM to a lysine residue on Histone H3 of a mononucleosome, purified from HeLa cells. Mononucleosomes were captured on SPA beads and the resulting signal is read on a ViewLux plate reader.
Part A. Compound Preparation
• 1. Prepare 10 mM stock of compounds from solid in 100% DMSO. • 2. Set up an 11-point serial dilution (1:3 dilution, top concentration 10 mM) in 100% DMSO for each test compound in a 384 well plate leaving columns 6 and 18 for DMSO controls. • 3. Dispense 100 nL of compound from the dilution plate into reaction plates (Grenier Bio-One, 384-well, Cat#784075). Part B. Reagent Preparation Prepare the following solutions: • 1. 50 mM Tris-HCl, pH 8: Per 1 L of base buffer, combine 1 M Tris-HCl, pH 8 (50 mL) and distilled water (950 mL). • 2. 1× Assay Buffer: Per 10 mL of 1× Assay Buffer, combine 50 mM Tris-HCl, pH 8 (9958 uL), 1 M MgCl2 (20 uL), 2 M DTT (20 uL), and 10% Tween-20 (2 uL) to provide a final concentration of 50 mM Tris-HCl, pH 8, 2 mM MgCl2, 4 mM DTT, 0.002% Tween-20. • 3. 2× Enzyme Solution: Per 10 mL of 2× Enzyme Solution, combine 1× Assay Buffer and PRC2 complex to provide a final enzyme concentration of 10 nM. • 4. SPA Bead Suspension: Per 1 mL of SPA Bead Suspension, combine PS-PEI coated LEADSeeker beads (40 mg) and ddH2O (1 mL) to provide a final concentration of 40 mg/mL. • 5. 2× Substrate Solution: Per 10 mL of 2× Substrate Solution, combine 1× Assay Buffer (9728.55 uL), 800 ug/mL mononucleosomes (125 uL), 1 mM cold SAM (4 uL), and 7.02 uM 3H-SAM (142.45 uL; 0.55 mCi/mL) to provide a final concentration of 5 ug/mL nucleosomes, 0.2 uM cold SAM, and 0.05 uM 3H-SAM. • 6. 2.67× Quench/Bead Mixture: Per 10 mL of 2.67× Quench/Bead Mixture, combine ddH2O (9358 uL), 10 mM cold SAM (267 uL), 40 mg/mL Bead Suspension (375 uL) to provide a final concentration of 100 uM cold SAM and 0.5 mg/mL SPA beads. Part C. Assay Reaction in 384-well Grenier Bio-One Plates Compound Addition • 1. Dispense […] of 100× Compound to test wells (as noted above). • 2. Dispense […] of 100% DMSO to columns 6 & 18 for high and low controls, respectively. Assay • 1. Dispense 5 uL/well of 1× Assay Buffer to column 18 (low control reactions). • 2. Dispense 5 uL/well of 2× Enzyme Solution to columns 1-17, 19-24. • 3. Spin assay plates for ˜1 minute at 500 rpm. • 4. Stack the assay plates, covering the top plate. • 5. Incubate the compound/DMSO with the enzyme for 30 minutes at room temperature. • 6. Dispense 5 uL/well of 2× Substrate Solution to columns 1-24. • 7. Spin assay plates for ˜1 minute at 500 rpm. • 8. Stack the assay plates, covering the top plate. • 9. Incubate the assay plates at room temperature for 1 hour. Quench/Bead Addition • 1. Dispense 5 uL/well of the 3× Quench/Bead Mixture to columns 1-24. • 2. Seal the top of each assay plate with adhesive TopSeal. • 3. Spin assay plates for ˜1 minute at 500 rpm. • 4. Equilibrate the plates for >20 min. Read Plates • 1. Read the assay plates on the Viewlux Plate Reader utilizing the 613 nm emission filter with a 300 s read time. Reagent addition can be done manually or with automated liquid handler. *The final DMSO concentration in this assay is 1%. *The positive control is in column 6; negative control is in column 18. *Final starting concentration of compounds is 100 μM. Part D. Data Analysis
Percent inhibition was calculated relative to the DMSO control for each compound concentration and the resulting values were fit using standard IC50 fitting parameters within the ABASE data fitting software package.

T1 sequence (Q15910 whole entry): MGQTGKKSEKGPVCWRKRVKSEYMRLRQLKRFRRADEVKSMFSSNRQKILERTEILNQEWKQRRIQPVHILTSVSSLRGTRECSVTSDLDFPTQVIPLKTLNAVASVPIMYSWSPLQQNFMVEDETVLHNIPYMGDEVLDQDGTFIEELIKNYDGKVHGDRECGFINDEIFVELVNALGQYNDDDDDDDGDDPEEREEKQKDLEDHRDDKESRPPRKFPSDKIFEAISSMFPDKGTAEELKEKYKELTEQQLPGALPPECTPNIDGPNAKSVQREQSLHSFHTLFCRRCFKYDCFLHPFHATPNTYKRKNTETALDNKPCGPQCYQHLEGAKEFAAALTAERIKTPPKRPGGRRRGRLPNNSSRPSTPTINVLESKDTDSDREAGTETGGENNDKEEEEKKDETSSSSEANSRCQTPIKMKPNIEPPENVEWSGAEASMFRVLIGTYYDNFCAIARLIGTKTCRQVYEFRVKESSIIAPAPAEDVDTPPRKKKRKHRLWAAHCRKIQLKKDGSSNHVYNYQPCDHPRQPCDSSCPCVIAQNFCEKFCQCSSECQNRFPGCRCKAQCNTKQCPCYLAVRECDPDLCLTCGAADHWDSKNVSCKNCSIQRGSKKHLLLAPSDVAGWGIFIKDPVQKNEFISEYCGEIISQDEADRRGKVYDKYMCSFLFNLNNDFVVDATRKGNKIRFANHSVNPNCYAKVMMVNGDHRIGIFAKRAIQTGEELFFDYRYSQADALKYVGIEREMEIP
T1 sequence (O75530 whole entry partner): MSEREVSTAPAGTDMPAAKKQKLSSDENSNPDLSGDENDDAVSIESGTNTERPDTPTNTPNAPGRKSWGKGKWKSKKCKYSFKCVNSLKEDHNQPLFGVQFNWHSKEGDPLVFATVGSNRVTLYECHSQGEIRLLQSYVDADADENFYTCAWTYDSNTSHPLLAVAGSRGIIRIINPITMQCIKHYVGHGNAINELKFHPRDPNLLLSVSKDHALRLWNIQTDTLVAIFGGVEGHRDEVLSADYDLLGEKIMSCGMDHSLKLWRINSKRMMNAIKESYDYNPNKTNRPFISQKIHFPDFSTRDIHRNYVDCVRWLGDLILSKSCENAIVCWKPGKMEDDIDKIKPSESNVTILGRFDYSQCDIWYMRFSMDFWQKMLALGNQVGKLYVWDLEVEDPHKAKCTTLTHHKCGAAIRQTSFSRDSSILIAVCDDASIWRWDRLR
T1 sequence (Q15022 whole entry partner): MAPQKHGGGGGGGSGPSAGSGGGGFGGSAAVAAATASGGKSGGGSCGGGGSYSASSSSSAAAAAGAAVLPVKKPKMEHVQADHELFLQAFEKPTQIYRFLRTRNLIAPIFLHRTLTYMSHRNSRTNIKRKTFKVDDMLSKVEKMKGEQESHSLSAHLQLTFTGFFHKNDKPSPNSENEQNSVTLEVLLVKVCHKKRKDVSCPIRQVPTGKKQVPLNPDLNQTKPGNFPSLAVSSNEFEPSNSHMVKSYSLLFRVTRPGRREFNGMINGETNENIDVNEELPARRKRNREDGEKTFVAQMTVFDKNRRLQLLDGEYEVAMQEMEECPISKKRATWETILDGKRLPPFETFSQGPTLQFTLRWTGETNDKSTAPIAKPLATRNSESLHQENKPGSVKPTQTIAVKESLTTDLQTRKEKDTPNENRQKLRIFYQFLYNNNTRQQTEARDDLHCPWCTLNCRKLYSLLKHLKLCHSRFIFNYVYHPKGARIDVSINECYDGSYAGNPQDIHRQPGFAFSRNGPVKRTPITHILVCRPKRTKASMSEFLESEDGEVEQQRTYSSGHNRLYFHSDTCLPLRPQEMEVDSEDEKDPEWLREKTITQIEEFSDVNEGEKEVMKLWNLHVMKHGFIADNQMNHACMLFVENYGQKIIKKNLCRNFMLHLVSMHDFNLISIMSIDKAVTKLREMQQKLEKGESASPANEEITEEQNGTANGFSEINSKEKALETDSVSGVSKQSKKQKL
T1 sequence (Q09028 whole entry partner): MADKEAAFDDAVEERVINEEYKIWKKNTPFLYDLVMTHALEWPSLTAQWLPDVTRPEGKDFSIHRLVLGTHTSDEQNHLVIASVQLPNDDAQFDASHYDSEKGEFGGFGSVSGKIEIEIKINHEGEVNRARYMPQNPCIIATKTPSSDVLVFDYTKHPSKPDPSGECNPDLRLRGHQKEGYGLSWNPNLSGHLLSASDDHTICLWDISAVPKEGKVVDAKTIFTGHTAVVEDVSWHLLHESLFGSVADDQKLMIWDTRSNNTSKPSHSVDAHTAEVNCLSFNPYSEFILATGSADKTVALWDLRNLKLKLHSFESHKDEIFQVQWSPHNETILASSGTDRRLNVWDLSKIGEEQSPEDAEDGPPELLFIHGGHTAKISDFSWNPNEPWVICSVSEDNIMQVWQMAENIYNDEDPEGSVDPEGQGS
T1 sequence (Q6ZN18 whole entry partner): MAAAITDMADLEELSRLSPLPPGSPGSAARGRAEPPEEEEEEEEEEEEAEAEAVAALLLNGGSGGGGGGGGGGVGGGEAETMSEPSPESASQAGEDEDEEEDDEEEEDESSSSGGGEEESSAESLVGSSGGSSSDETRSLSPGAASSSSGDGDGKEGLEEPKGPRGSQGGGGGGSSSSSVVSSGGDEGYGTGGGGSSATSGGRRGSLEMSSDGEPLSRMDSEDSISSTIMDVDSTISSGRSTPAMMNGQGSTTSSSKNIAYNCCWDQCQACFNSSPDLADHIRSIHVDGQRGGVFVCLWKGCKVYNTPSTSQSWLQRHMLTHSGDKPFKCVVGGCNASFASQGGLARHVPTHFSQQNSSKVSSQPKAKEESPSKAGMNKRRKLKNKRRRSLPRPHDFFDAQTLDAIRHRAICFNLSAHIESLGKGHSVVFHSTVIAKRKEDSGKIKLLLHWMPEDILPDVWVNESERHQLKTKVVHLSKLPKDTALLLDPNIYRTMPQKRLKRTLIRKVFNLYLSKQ

IC50 | Compound
25 nM | 1-isopropyl-N-((6-methyl-2-oxo-4-propyl-1,2-dihydropyridin-3-yl)methyl)-6-(thiophen-3-yl)-1H-indazole-4-carboxamide [Example 32]
32 nM | CCCc1cc(C)[nH]c(=O)c1CNC(=O)c1cc(Cl)cc2c1cnn2C(C)C [Example 1, 6-chloro-1-(1-methylethyl)-N-[(6-methyl-2-oxo-4-propyl-1,2-dihydro-3-pyridinyl)methyl]-1H-indazole-4-carboxamide]
158 nM | Cc1cc(C)c(CNC(=O)c2cc(Br)cc3c2cnn3C(C)C)c(=O)[nH]1 [Example 3, 6-Bromo-N-[(4,6-dimethyl-2-oxo-1,2-dihydro-3-pyridinyl)methyl]-1-(1-methylethyl)-1H-indazole-4-carboxamide]
25 nM | CCc1cc(C)[nH]c(=O)c1CNC(=O)c1cc(Br)cc2c1cnn2C(C)C [Example 4, 6-bromo-N-((4-ethyl-6-methyl-2-oxo-1,2-dihydropyridin-3-yl)methyl)-1-isopropyl-1H-indazole-4-carboxamide]
8 nM | Cc1cc(Cc2ccccc2)c(CNC(=O)c2cc(Br)cc3c2cnn3C(C)C)c(=O)[nH]1 [Example 5, 6-bromo-1-(1-methylethyl)-N-{[6-methyl-2-oxo-4-(phenylmethyl)-1,2-dihydro-3-pyridinyl]methyl}-1H-indazole-4-carboxamide]
40 nM | Cc1cc(Cc2ccccc2)c(CNC(=O)c2cccc3c2cnn3C(C)C)c(=O)[nH]1 [Example 7, 1-(1-methylethyl)-N-{[6-methyl-2-oxo-4-(phenylmethyl)-1,2-dihydro-3-pyridinyl]methyl}-1H-indazole-4-carboxamide]
10 nM | Cc1cc(C)c(CNC(=O)c2cc(-c3ccc(OCCN(C)C)cc3)cc3c2cnn3C(C)C)c(=O)[nH]1 [Example 8, N-((4,6-dimethyl-2-oxo-1,2-dihydropyridin-3-yl)methyl)-6-(4-(2-(dimethylamino)ethoxy)phenyl)-1-isopropyl-1H-indazole-4-carboxamide]
16 nM | Cc1cc(C)c(CNC(=O)c2cc(-c3ccc(N4CCNCC4)cc3)cc3c2cnn3C(C)C)c(=O)[nH]1 [Example 9, N-[(4,6-dimethyl-2-oxo-1,2-dihydro-3-pyridinyl)methyl]-1-(1-methylethyl)-6-[4-(1-piperazinyl)phenyl]-1H-indazole-4-carboxamide]
13 nM | Cc1cc(C)c(CNC(=O)c2cc(-c3ccc(N4CCNCC4)nc3)cc3c2cnn3C(C)C)c(=O)[nH]1 [Example 10, N-[(4,6-dimethyl-2-oxo-1,2-dihydro-3-pyridinyl)methyl]-1-(1-methylethyl)-6-[6-(1-piperazinyl)-3-pyridinyl]-1H-indazole-4-carboxamide]
4 nM | Cc1cc(C(C)C)c(CNC(=O)c2cc(-c3ccc(N4CCNCC4)nc3)cc3c2cnn3C(C)C)c(=O)[nH]1 [Example 12, 1-isopropyl-N-((4-isopropyl-6-methyl-2-oxo-1,2-dihydropyridin-3-yl)methyl)-6-(6-(piperazin-1-yl)pyridin-3-yl)-1H-indazole-4-carboxamide]
126 nM | Cc1cc(C)c(CNC(=O)c2cc(-c3cnn(C)c3)cc3c2cnn3C(C)C)c(=O)[nH]1 [Example 13, N-((4,6-dimethyl-2-oxo-1,2-dihydropyridin-3-yl)methyl)-1-isopropyl-6-(1-methyl-1H-pyrazol-4-yl)-1H-indazole-4-carboxamide]
5 nM | CCc1cc(C)[nH]c(=O)c1CNC(=O)c1cc(-c2ccc(CN(C)C)cc2)cc2c1cnn2C(C)C [Example 14, 6-(4-((dimethylamino)methyl)phenyl)-N-((4-ethyl-6-methyl-2-oxo-1,2-dihydropyridin-3-yl)methyl)-1-isopropyl-1H-indazole-4-carboxamide]
2 nM | CCCc1cc(C)[nH]c(=O)c1CNC(=O)c1cc(-c2ccc(N3CCNCC3)nc2)cc2c1cnn2C(C)C [Example 15, 1-(1-methylethyl)-N-[(6-methyl-2-oxo-4-propyl-1,2-dihydro-3-pyridinyl)methyl]-6-[6-(1-piperazinyl)-3-pyridinyl]-1H-indazole-4-carboxamide]
3 nM | CCc1cc(C)[nH]c(=O)c1CNC(=O)c1cc(-c2ccc(N3CCN(C)CC3)nc2)cc2c1cnn2C(C)C [Example 16, N-((4-ethyl-6-methyl-2-oxo-1,2-dihydropyridin-3-yl)methyl)-1-isopropyl-6-(6-(4-methylpiperazin-1-yl)pyridin-3-yl)-1H-indazole-4-carboxamide]
8 nM | CCCc1cc(C)[nH]c(=O)c1CNC(=O)c1cc(-c2cnc(C)nc2)cc2c1cnn2C(C)C [Example 17, 1-isopropyl-N-((6-methyl-2-oxo-4-propyl-1,2-dihydropyridin-3-yl)methyl)-6-(2-methylpyrimidin-5-yl)-1H-indazole-4-carboxamide]
10 nM | CCCc1cc(C)[nH]c(=O)c1CNC(=O)c1cc(-c2ccc(N(C)C)nc2)cc2c1cnn2C(C)C [Example 18, 6-[6-(dimethylamino)-3-pyridinyl]-1-(1-methylethyl)-N-[(6-methyl-2-oxo-4-propyl-1,2-dihydro-3-pyridinyl)methyl]-1H-indazole-4-carboxamide]
6 nM | CCCc1cc(C)[nH]c(=O)c1CNC(=O)c1cc(-c2ccc(N3CCOCC3)nc2)cc2c1cnn2C(C)C [Example 19, 1-(1-methylethyl)-N-[(6-methyl-2-oxo-4-propyl-1,2-dihydro-3-pyridinyl)methyl]-6-[6-(4-morpholinyl)-3-pyridinyl]-1H-indazole-4-carboxamide]
10 nM | CCCc1cc(C)[nH]c(=O)c1CNC(=O)c1cc(-c2cnc(N)nc2)cc2c1cnn2C(C)C [Example 20, 6-(2-amino-5-pyrimidinyl)-1-(1-methylethyl)-N-[(6-methyl-2-oxo-4-propyl-1,2-dihydro-3-pyridinyl)methyl]-1H-indazole-4-carboxamide]
5 nM | CCCc1cc(C)[nH]c(=O)c1CNC(=O)c1cc(-c2ccc(N)nc2)cc2c1cnn2C(C)C [Example 21, 6-(6-amino-3-pyridinyl)-1-(1-methylethyl)-N-[(6-methyl-2-oxo-4-propyl-1,2-dihydro-3-pyridinyl)methyl]-1H-indazole-4-carboxamide]
20 nM | CCCc1cc(C)[nH]c(=O)c1CNC(=O)c1cc(-c2cncnc2)cc2c1cnn2C(C)C [Example 22, 1-(1-methylethyl)-N-[(6-methyl-2-oxo-4-propyl-1,2-dihydro-3-pyridinyl)methyl]-6-(5-pyrimidinyl)-1H-indazole-4-carboxamide]
8 nM | CCCc1cc(C)[nH]c(=O)c1CNC(=O)c1cc(-c2ccc(OC)nc2)cc2c1cnn2C(C)C [Example 23, 1-(1-methylethyl)-N-[(6-methyl-2-oxo-4-propyl-1,2-dihydro-3-pyridinyl)methyl]-6-[6-(methyloxy)-3-pyridinyl]-1H-indazole-4-carboxamide]
